For assay [1], the system named is T-Rex 293 cell line SC3 cells lacking increased expression of androgen receptor protein. Briefly: Cellular growth inhibition assay, T-Rex 293 SC3 cells without doxycycline (CellTiter-Glo, 72 hours). Type of assay: cell-based. The following applies: T-Rex 293 cell line SC3 cells not exposed to doxycycline (lacking increased androgen receptor expression). The procedure, abridged: (§1)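 Growth inhibition is measured in an inducible AR-expressing T-Rex 293 clone, SC3, cultured with or without 10 ng/mL doxycycline in hormone-depleted medium. Test compounds are applied for 72 hours. GI50 values derive from CellTiter-Glo 2.0 signal fitted by four-parameter regression.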

A further assay relates to VCaP cells. Kind of assay: Cellular growth inhibition assay for VCaP cells (CellTiter-Glo, 72 hours). The assay is classed as cell-based, human. The procedure, abridged: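 Luminescent viability signal after 72 h of compound exposure gave GI50 values by four-parameter nonlinear regression. Compounds were added in 0.5% DMSO to cells plated 24 h earlier at 5000/well in DMEM containing 10% FBS.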
(ATP-based viability assays read luminescence as a measure of living cells.)

The test system of assay [2] is T-Rex 293 cell line SC3 cells having increased expression of androgen receptor protein due to exposure to doxycycline. Briefly: Cellular growth inhibition assay, T-Rex 293 SC3 cells with doxycycline (CellTiter-Glo, 72 hours). The assay is classed as cell-based. Particulars: T-Rex 293 SC3 cells with increased androgen receptor expression due to doxycycline (10 ng/mL). The procedure, abridged:
as §1

A further assay has as its system T47D cells. Briefly: Cellular growth inhibition assay for T47D cells (CellTiter-Glo, 72 hours). The assay is classed as cell-based, human. Particulars: 72 hours treatment. The gist of the method:
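Luminescence from CellTiter-Glo 2.0 after 72 h of compound exposure gives the viability signal. Cells grew in insulin-supplemented (0.2 units/mL) DMEM with 10% FBS and were treated one day after seeding at 0.5% DMSO. GI50 values come from four-parameter nonlinear regression.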

The structures appear in SMILES notation. Where two headings read alike, the source gives them in different places.

As for `Cc1sc2c(c1C)C(c1ccc(CN(C)C(=O)[C@@H]3CC[C@H](c4ccc(C(=O)N[C@H]5CC[C@H](Oc6ccc(C#N)c(Cl)c6)CC5)nn4)C3)cc1)=N[C@@H](Cc1ncco1)c1nnc(C)n1-2` [I-315], the GI50 (usually the concentration at which growth is held to half of that of the control) was above 3000 nM in assay [1] (72 h); below 500 nM in the assay on VCaP cells (Homo sapiens, VCaP, 72 h); below 500 nM in assay [2] (72 h); 500 to 1500 nM in the assay on T47D cells (Homo sapiens, T47D, 72 h).

As for `Cc1sc2c(c1C)C(c1ccc(CN(C)C(=O)[C@@H]3CC[C@@H](c4ccc(C(=O)N[C@H]5CC[C@H](Oc6ccc(C#N)c(Cl)c6)CC5)nn4)C3)cc1)=N[C@@H](Cc1ncco1)c1nnc(C)n1-2` [I-316], the concentration for 50% growth inhibition (GI50) in assay [1] (72 h) was above 3000 nM; in the assay with VCaP cells (Homo sapiens, VCaP, 72 h), below 500 nM; in assay [2] (72 h), below 500 nM; with T47D cells (Homo sapiens, T47D, 72 h) it was 1500 to 3000 nM.

Take `Cc1sc2c(c1C)C(c1ccc(CC(=O)NCCc3ccc(C(=O)N[C@H]4CC[C@H](Oc5ccc(C#N)c(Cl)c5)CC4)nn3)cc1)=N[C@@H](Cc1ncco1)c1nnc(C)n1-2` [I-317]: the GI50 in assay [1] (72 h) was 500 to 1500 nM; with VCaP cells (Homo sapiens, VCaP, 72 h), below 500 nM; in assay [2] (72 h), below 500 nM; with T47D cells (Homo sapiens, T47D, 72 h), below 500 nM.

Turning to `Cc1sc2c(c1C)C(c1ccc(CN(C)C(=O)NCc3ccc(C(=O)N[C@H]4CC[C@H](Oc5ccc(C#N)c(Cl)c5)CC4)nn3)cc1)=N[C@@H](Cc1ncco1)c1nnc(C)n1-2` [I-318], the GI50 in assay [1] (72 h) is above 3000 nM; in the assay on VCaP cells (Homo sapiens, VCaP, 72 h) it was below 500 nM; in assay [2] (72 h), below 500 nM; in the assay with T47D cells (Homo sapiens, T47D, 72 h), above 3000 nM.

As for `Cc1sc2c(c1C)C(c1ccc(CC(=O)N3CCN(c4ccc(C(=O)N[C@H]5CC[C@H](Oc6ccc(C#N)c(Cl)c6)CC5)nn4)CC3)cc1)=N[C@@H](Cc1ncco1)c1nnc(C)n1-2` [I-319], the GI50 in assay [1] (72 h) is above 3000 nM; in the assay on VCaP cells (Homo sapiens, VCaP, 72 h), below 500 nM; in assay [2] (72 h), below 500 nM; with T47D cells (Homo sapiens, T47D, 72 h), below 500 nM.

On to `Cc1sc2c(c1C)C(c1ccc(C(=O)N(C)CCCc3ccc(C(=O)N[C@H]4CC[C@H](Oc5ccc(C#N)c(Cl)c5)CC4)nn3)cc1)=N[C@@H](Cc1ncco1)c1nnc(C)n1-2` [I-320], for which the GI50 is above 3000 nM in assay [1] (72 h); above 3000 nM with VCaP cells (Homo sapiens, VCaP, 72 h); above 3000 nM in assay [2] (72 h); above 3000 nM in the assay on T47D cells (Homo sapiens, T47D, 72 h).

As to `Cc1sc2c(c1C)C(c1ccc(C(=O)N(C)CCCc3ccc(C(=O)N[C@H]4CC[C@H](Oc5ccc(C#N)c(Cl)c5)CC4)nn3)cc1)=N[C@H](Cc1ncco1)c1nnc(C)n1-2` [I-321], the GI50 was above 3000 nM in assay [1] (72 h); below 500 nM in the assay with VCaP cells (Homo sapiens, VCaP, 72 h); below 500 nM in assay [2] (72 h); 1500 to 3000 nM in the assay on T47D cells (Homo sapiens, T47D, 72 h).

For the compound `Cc1sc2c(c1C)C(c1ccc(C#CC3CC4(C3)CN(c3ccc(C(=O)N[C@H]5CC[C@H](Oc6ccc(C#N)c(Cl)c6)CC5)nn3)C4)nc1)=N[C@H](Cc1ncco1)c1nnc(C)n1-2` [I-322], the GI50 in assay [1] (72 h) is below 500 nM; with VCaP cells (Homo sapiens, VCaP, 72 h), below 500 nM; in assay [2] (72 h), below 500 nM; in the assay on T47D cells (Homo sapiens, T47D, 72 h), below 500 nM.

In the case of `Cc1sc2c(c1C)C(c1ccc(CCC[C@H]3CCCN(c4ccc(C(=O)N[C@H]5CC[C@H](Oc6ccc(C#N)c(Cl)c6)CC5)nn4)C3)cc1)=N[C@@H](C)c1nnc(C)n1-2` [I-323], the GI50 in assay [1] (72 h) is 500 to 1500 nM; with VCaP cells (Homo sapiens, VCaP, 72 h), below 500 nM; in assay [2] (72 h), below 500 nM; in the assay on T47D cells (Homo sapiens, T47D, 72 h), 500 to 1500 nM.

On to `Cc1sc2c(c1C)C(c1ccc(CCO[C@@H]3CCCN(c4ccc(C(=O)N[C@H]5CC[C@H](Oc6ccc(C#N)c(Cl)c6)CC5)nn4)C3)cc1)=N[C@@H](C)c1nnc(C)n1-2` [I-324], for which the GI50 is above 3000 nM in assay [1] (72 h); above 3000 nM in the assay on VCaP cells (Homo sapiens, VCaP, 72 h); below 500 nM in assay [2] (72 h); 1500 to 3000 nM in the assay with T47D cells (Homo sapiens, T47D, 72 h).

With `Cc1sc2c(c1C)C(c1ccc(CCO[C@H]3CCCN(c4ccc(C(=O)N[C@H]5CC[C@H](Oc6ccc(C#N)c(Cl)c6)CC5)nn4)C3)cc1)=N[C@@H](C)c1nnc(C)n1-2` [I-325], the concentration for 50% growth inhibition (GI50) in assay [1] (72 h) was above 3000 nM; with VCaP cells (Homo sapiens, VCaP, 72 h), 1500 to 3000 nM; in assay [2] (72 h), below 500 nM; with T47D cells (Homo sapiens, T47D, 72 h), 1500 to 3000 nM.

Turning to `Cc1sc2c(c1C)C(c1ccc(CC[C@H]3C[C@@]4(CCCN(c5ccc(C(=O)N[C@H]6CC[C@H](Oc7ccc(C#N)c(Cl)c7)CC6)nn5)C4)C3)cc1)=N[C@@H](C)c1nnc(C)n1-2` [I-326], the 50% growth inhibitory concentration (GI50) in assay [1] is above 3000 nM; with VCaP cells it was below 500 nM; in assay [2] it was below 500 nM; in the assay with T47D cells, below 500 nM.

`Cc1sc2c(c1C)C(c1ccc(CC[C@H]3C[C@]4(CCCN(c5ccc(C(=O)N[C@H]6CC[C@H](Oc7ccc(C#N)c(Cl)c7)CC6)nn5)C4)C3)cc1)=N[C@@H](C)c1nnc(C)n1-2` [I-327]: the GI50 is above 3000 nM in assay [1], above 3000 nM with VCaP cells, below 500 nM in assay [2] and 1500 to 3000 nM in the assay with T47D cells.

On to `Cc1sc2c(c1C)C(c1ccc(OC[C@H]3CC[C@@]4(CCCN(c5ccc(C(=O)N[C@H]6CC[C@H](Oc7ccc(C#N)c(Cl)c7)CC6)nn5)C4)C3)nc1)=N[C@@H](Cc1ncco1)c1nnc(C)n1-2` [I-328], for which the GI50 was below 500 nM in assay [1] (72 h); below 500 nM with VCaP cells (Homo sapiens, VCaP, 72 h); below 500 nM in assay [2] (72 h); 500 to 1500 nM in the assay on T47D cells (Homo sapiens, T47D, 72 h).

On to `Cc1sc2c(c1C)C(c1ccc(OC[C@H]3CC[C@]4(CCCN(c5ccc(C(=O)N[C@H]6CC[C@H](Oc7ccc(C#N)c(Cl)c7)CC6)nn5)C4)C3)nc1)=N[C@@H](Cc1ncco1)c1nnc(C)n1-2` [I-329], for which the GI50 is above 3000 nM in assay [1] (72 h); below 500 nM in the assay on VCaP cells (Homo sapiens, VCaP, 72 h); below 500 nM in assay [2] (72 h); above 3000 nM in the assay with T47D cells (Homo sapiens, T47D, 72 h).

Take `Cc1sc2c(c1C)C(c1ccc(OC[C@@H]3CC[C@@]4(CCCN(c5ccc(C(=O)N[C@H]6CC[C@H](Oc7ccc(C#N)c(Cl)c7)CC6)nn5)C4)C3)nc1)=N[C@@H](Cc1ncco1)c1nnc(C)n1-2` [I-330]: the GI50 was above 3000 nM in assay [1] (72 h); below 500 nM in the assay on VCaP cells (Homo sapiens, VCaP, 72 h); below 500 nM in assay [2] (72 h); above 3000 nM in the assay with T47D cells (Homo sapiens, T47D, 72 h).

In the case of `Cc1sc2c(c1C)C(c1ccc(CC(=O)N3CCC(c4ccc(C(=O)N[C@H]5CC[C@H](Oc6ccc(C#N)c(Cl)c6)CC5)nn4)CC3)cc1)=N[C@H](Cc1ncco1)c1nnc(C)n1-2` [I-331], the GI50 was above 3000 nM in assay [1] (72 h); below 500 nM with VCaP cells (Homo sapiens, VCaP, 72 h); above 3000 nM in assay [2] (72 h); 1500 to 3000 nM in the assay on T47D cells (Homo sapiens, T47D, 72 h).

In the case of `Cc1sc2c(c1C)C(c1ccc(N(C)CC(=O)NCc3ccc(C(=O)N[C@H]4CC[C@H](Oc5ccc(C#N)c(Cl)c5)CC4)nn3)cc1)=N[C@@H](Cc1ncco1)c1nnc(C)n1-2` [I-332], the GI50 was above 3000 nM in assay [1] (72 h); above 3000 nM in the assay on VCaP cells (Homo sapiens, VCaP, 72 h); above 3000 nM in assay [2] (72 h); above 3000 nM with T47D cells (Homo sapiens, T47D, 72 h).

Regarding `Cc1sc2c(c1C)C(c1ccc(N(C)CC(=O)NCc3ccc(C(=O)N[C@H]4CC[C@H](Oc5ccc(C#N)c(Cl)c5)CC4)nn3)cc1)=N[C@H](Cc1ncco1)c1nnc(C)n1-2` [I-333], the GI50 in assay [1] (72 h) was above 3000 nM; with VCaP cells (Homo sapiens, VCaP, 72 h), below 500 nM; in assay [2] (72 h) it was above 3000 nM; in the assay with T47D cells (Homo sapiens, T47D, 72 h), 500 to 1500 nM.

For `Cc1sc2c(c1C)C(c1ccc(OC3CC4(CCN(c5ccc(C(=O)N[C@H]6CC[C@H](Oc7ccc(C#N)c(Cl)c7)CC6)nn5)CC4)C3)cc1)=N[C@@H](C)c1nnc(C)n1-2` [I-334], the GI50 was 500 to 1500 nM in assay [1] (72 h); below 500 nM in the assay with VCaP cells (Homo sapiens, VCaP, 72 h); below 500 nM in assay [2] (72 h); below 500 nM in the assay on T47D cells (Homo sapiens, T47D, 72 h).

Take `Cc1sc2c(c1C)C(c1ccc(CC3CC4(CCN(c5ccc(C(=O)N[C@H]6CC[C@H](Oc7ccc(C#N)c(Cl)c7)CC6)nn5)CC4)C3)cc1)=N[C@@H](C)c1nnc(C)n1-2` [I-335]: the GI50 in assay [1] (72 h) was above 3000 nM; with VCaP cells (Homo sapiens, VCaP, 72 h), below 500 nM; in assay [2] (72 h) it was below 500 nM; with T47D cells (Homo sapiens, T47D, 72 h) it was below 500 nM.

These data come from patent publication US20260109707A1, “HETEROBIFUNCTIONAL COMPOUNDS AND METHODS OF TREATING DISEASE” (Halda Therapeutics OpCo. Inc., priority 2022, published 2026).
